According to PubChem BioAssay (NCI):
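Results reflect a 48-hour exposure of cells in 96-well plates to compound at five concentrations. At the GI50, growth is halved. TGI denotes the concentration required for complete inhibition of growth.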

What was measured:
Experiment in all cases: inhibition of tumour cell growth, NCI panel, 48 h
[1] = test system: DU-145 prostate
[2] = test system: HCC-2998 colon
[3] = test system: HL-60(TB) leukemia
[4] = test system: HT29 colon
[5] = test system: NCI-H522 lung
[6] = test system: RXF 393 renal
[7] = test system: SK-MEL-28 melanoma
[8] = test system: SW-620 colon
[9] = test system: T-47D breast
[10] = test system: UO-31 renal

Compound	TGI [1] [µM]	GI50 [2] [µM]	TGI [2] [µM]	GI50 [3] [µM]	TGI [3] [µM]	TGI [4] [µM]	GI50 [5] [µM]	TGI [5] [µM]	TGI [6] [µM]	TGI [7] [µM]	TGI [8] [µM]	GI50 [9] [µM]	TGI [9] [µM]	GI50 [10] [µM]	TGI [10] [µM]	GI50 [1] [µM]	GI50 [4] [µM]	GI50 [6] [µM]	GI50 [7] [µM]	GI50 [8] [µM]
Clc1nc(Cl)c2ncn(Cc3ccc(Cn4cnc5c(Cl)nc(Cl)nc54)cc3)c2n1	10	11	24	0.0475	4.4	16.4	5.65	25	0.555	28.3	8.91	12.4	> 36.7	5.01	20.1					
O=[N+]([O-])c1ccc(S(=O)(=O)Cc2ccccc2)c2nonc12	36.3				45.9	36.7		38	33.5	38.5	48.6		39.8		45.1					
CC1=C(/C=C/C(C)=C/C=C/C(C)=C/CO)C(C)(C)CCC1	> 100		36.2		45.3	> 100		54.7	28.3	48.5	38.8		96.2		31.8					
Cc1ccc(-c2nc(N3CCCNCC3)c3oc(-c4ccc(C)cc4)nc3n2)cc1	3.3	32.3	> 100	0.179	0.371	2.85	1.75	3.51	3.14	3.51	3.2	1.94	4.17	1.38	2.68	1.89	1.49	1.65	1.93	1.66
COc1cc(Cl)cc(-c2nn(-c3cccc(NC(=O)Nc4ccc(Cl)c(C(F)(F)F)c4)c3)cc2-c2ccncc2)c1	14	2.91	9.02	1.68	5.53	4.38	0.418	2.5	4.42	8.41	10.5	1.25	8.02	1.66	10.9	1.86	1.14	1.71	2.41	1.61
Cc1nc(Nc2nc3ccccc3o2)nc(-c2cccc([N+](=O)[O-])c2)c1C(=O)Nc1ccc(F)c(Cl)c1	> 100	3.26	> 100	2.15	5.29	19.5	1.39	5.71	> 100	> 100	> 100	1.41	9.18	1.87	7.09	2.95	2.21	2.83	3.83	3.09
COc1ccc(-c2nn(-c3cccc(NC(=O)c4ccc(N5CCOCC5)c(C(F)(F)F)c4)c3)cc2-c2ccncc2)cc1Cl	> 50	14.1	> 50	4.42	> 50	> 50	2.77	34.4	23.3	> 50	> 50	4.5	> 50	20.8	> 50	> 50	1.72	1.35	9.97	21.3
